In ChEMBL document CHEMBL1201862, “PubChem BioAssay data set” (2004):
The source made the active and inactive calls.

Key:
Coagulation factor XII = molecular target: T1, Coagulation factor XII (Homo sapiens, UniProt P00748); format: functional;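 also: activated factor XIIa alpha cleaving a fluorogenic AMC peptide substrate; inhibitor potency from loss of enzyme activity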
T1 sequence (P00748 whole entry): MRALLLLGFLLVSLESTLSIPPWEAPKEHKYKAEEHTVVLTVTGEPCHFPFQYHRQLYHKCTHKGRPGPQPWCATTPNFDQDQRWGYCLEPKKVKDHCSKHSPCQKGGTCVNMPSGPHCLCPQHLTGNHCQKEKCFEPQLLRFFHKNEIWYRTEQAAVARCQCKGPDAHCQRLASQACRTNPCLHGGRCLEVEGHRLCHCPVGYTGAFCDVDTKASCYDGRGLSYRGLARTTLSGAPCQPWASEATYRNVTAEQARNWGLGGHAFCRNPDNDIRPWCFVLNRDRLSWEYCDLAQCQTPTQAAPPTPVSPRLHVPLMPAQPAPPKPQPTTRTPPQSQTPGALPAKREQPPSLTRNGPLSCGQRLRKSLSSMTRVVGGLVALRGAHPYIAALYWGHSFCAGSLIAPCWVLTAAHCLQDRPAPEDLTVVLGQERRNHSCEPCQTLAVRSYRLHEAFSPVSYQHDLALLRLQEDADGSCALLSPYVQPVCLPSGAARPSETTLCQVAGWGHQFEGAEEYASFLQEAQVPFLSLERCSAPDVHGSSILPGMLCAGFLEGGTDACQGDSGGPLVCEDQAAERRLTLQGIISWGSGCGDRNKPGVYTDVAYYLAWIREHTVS

Cytochrome P450 3A4 = Cytochrome P450 3A4 (Homo sapiens, UniProt P08684);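 also: CYP3A4 tested as one member of a cytochrome P450 panel screen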
Sequence of Cytochrome P450 3A4 (P08684 whole entry): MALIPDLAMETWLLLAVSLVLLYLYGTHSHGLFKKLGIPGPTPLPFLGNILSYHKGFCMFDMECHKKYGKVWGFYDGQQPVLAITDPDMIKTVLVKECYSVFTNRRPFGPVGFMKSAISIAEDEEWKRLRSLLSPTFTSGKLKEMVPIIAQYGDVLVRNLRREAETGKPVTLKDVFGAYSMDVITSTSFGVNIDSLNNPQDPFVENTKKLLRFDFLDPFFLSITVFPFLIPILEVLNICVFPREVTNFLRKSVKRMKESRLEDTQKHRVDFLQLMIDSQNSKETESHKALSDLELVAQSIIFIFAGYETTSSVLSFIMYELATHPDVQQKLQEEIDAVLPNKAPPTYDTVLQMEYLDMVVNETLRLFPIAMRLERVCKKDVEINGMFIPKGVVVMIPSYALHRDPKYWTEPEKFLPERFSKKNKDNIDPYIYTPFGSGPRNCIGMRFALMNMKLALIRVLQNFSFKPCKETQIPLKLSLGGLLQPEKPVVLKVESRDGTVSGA

HeLa = test: ATP-based viability loss in HeLa cells – cell-based, CellTiter-Glo luminescence, cherry-pick samples, cytotoxicity control for MITF activator project, dose response (AID 540259); format: functional; conditions: Homo sapiens
[1] = molecular target: T2, C-C chemokine receptor type 6 (Homo sapiens, UniProt P51684); test: antagonism of CCR6 beta-arrestin recruitment – cell-based, luminescent beta-arrestin readout, dose response (AID 504728); format: functional
T2 sequence (P51684 whole entry): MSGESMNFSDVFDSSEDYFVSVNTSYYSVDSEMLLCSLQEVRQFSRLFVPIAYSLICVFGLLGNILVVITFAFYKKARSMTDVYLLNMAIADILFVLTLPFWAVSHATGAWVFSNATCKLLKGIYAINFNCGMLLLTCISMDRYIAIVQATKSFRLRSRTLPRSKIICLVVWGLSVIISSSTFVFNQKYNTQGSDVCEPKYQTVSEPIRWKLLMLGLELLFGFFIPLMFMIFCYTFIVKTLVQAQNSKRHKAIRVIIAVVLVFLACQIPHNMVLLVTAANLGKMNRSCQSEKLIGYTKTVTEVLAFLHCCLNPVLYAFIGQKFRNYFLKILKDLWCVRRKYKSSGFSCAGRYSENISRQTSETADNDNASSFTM

Beta-galactosidase = Beta-galactosidase (Escherichia coli, UniProt Q8VNN2); test: detection-enzyme interference by beta-gal modulators – biochemical, E. coli enzyme, set 3, artefact control for CCR6 antagonist project, dose response (AID 504712); format: functional
Sequence of Beta-galactosidase (Q8VNN2 whole entry): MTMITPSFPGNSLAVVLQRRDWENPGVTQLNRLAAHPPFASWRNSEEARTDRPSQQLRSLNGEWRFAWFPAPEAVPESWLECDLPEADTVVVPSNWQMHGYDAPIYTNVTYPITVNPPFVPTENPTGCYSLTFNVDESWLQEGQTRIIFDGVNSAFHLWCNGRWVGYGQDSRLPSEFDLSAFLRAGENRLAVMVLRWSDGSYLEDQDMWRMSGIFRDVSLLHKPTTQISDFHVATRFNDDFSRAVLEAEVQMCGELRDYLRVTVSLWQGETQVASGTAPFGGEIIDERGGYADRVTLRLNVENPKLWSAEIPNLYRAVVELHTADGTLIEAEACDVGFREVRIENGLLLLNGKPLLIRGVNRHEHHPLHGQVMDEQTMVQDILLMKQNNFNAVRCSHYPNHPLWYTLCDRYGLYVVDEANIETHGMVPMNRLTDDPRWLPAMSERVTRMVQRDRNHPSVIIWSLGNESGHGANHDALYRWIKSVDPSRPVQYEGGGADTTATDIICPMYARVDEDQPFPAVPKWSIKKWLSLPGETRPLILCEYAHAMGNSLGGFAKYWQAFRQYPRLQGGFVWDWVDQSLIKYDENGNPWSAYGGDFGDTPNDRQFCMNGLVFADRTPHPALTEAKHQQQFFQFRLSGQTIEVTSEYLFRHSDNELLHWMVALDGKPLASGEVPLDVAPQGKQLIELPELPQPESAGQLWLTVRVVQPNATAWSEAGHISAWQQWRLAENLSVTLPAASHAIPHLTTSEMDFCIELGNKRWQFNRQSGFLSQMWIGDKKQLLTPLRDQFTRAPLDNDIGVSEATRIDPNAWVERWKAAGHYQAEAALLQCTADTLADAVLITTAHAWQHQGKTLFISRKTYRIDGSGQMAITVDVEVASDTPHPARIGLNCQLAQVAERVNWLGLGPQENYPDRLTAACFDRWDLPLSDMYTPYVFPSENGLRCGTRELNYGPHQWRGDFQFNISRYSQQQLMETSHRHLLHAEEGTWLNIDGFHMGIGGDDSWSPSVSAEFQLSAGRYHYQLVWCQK

[2] = molecular target: Dual specificity tyrosine-phosphorylation-regulated kinase 1A (Rattus norvegicus, UniProt Q63470); format: biochemical, Homo sapiens
[3] = luciferase reporter signal suppression in cells – H4 neuroglioma cells, luminescence, dose response (AID 1990); format: functional, cell-based
[4] = viability of PTEN-deleted HCT116 cells – cell-based, HCT116 PTEN knockout, dose response (AID 1047); format: functional;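 also: HCT116 colon tumor cells with PTEN knocked out; cells exposed to compound for 60 hours before readout; potency for loss of cell viability measured by luminescence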
[5] = alpha-synuclein stem-loop luciferase translation blockers – H4 neuroglioma cells, luminescence, confirmation (AID 1988); format: functional, cell-based
[6] = Luminescence Cell-Based Dose Response HTS to Identify Inhibitors of 5'UTR Stem-Loop Driven Prion Protein mRNA Translation in H4 Neuroglioblastoma Cells. [Related pubchem assays: 1827 (Project Summary), 1813 (Primary HTS)]; format: functional
[7] = viability of HCT116 lacking mutant beta-catenin – cell-based, human colon tumor, dose response (AID 1045); format: functional;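 also: HCT116 colon tumor cells with beta catenin knocked out; cells exposed to compound for 60 hours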
[8] = molecular target: T3, Ubiquitin-conjugating enzyme E2 N (Homo sapiens, UniProt P61088); format: functional;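 also: Dose-response confirmation in a TR-FRET assay detecting UBC13-driven polyubiquitin chain formation, inhibition measured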
T3 sequence (P61088 whole entry): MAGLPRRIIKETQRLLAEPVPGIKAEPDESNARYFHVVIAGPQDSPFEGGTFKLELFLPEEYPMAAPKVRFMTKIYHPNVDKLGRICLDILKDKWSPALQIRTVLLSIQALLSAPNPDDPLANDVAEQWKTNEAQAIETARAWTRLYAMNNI

[9] = molecular target: NAD-dependent protein deacylase sirtuin-5, mitochondrial (Homo sapiens, UniProt Q9NXA8); test: sirtuin-5 deacylation blockers, concentration series – biochemical, fluorescence imaging, cherry-pick, set 5, dose response (AID 720591);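 also: desuccinylation of succinyl peptide AMC substrate read as fluorescence after trypsin release; potency of inhibitors that lower fluorescence and may act on trypsin instead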
[10] = molecular target: T4, Voltage-gated N-type calcium channel alpha-1B subunit/Amyloid beta A4 precursor protein-binding family A member 1 (Homo sapiens, UniProt Q00975+Q02410); format: protein assay
T4 sequence (Q00975 whole entry): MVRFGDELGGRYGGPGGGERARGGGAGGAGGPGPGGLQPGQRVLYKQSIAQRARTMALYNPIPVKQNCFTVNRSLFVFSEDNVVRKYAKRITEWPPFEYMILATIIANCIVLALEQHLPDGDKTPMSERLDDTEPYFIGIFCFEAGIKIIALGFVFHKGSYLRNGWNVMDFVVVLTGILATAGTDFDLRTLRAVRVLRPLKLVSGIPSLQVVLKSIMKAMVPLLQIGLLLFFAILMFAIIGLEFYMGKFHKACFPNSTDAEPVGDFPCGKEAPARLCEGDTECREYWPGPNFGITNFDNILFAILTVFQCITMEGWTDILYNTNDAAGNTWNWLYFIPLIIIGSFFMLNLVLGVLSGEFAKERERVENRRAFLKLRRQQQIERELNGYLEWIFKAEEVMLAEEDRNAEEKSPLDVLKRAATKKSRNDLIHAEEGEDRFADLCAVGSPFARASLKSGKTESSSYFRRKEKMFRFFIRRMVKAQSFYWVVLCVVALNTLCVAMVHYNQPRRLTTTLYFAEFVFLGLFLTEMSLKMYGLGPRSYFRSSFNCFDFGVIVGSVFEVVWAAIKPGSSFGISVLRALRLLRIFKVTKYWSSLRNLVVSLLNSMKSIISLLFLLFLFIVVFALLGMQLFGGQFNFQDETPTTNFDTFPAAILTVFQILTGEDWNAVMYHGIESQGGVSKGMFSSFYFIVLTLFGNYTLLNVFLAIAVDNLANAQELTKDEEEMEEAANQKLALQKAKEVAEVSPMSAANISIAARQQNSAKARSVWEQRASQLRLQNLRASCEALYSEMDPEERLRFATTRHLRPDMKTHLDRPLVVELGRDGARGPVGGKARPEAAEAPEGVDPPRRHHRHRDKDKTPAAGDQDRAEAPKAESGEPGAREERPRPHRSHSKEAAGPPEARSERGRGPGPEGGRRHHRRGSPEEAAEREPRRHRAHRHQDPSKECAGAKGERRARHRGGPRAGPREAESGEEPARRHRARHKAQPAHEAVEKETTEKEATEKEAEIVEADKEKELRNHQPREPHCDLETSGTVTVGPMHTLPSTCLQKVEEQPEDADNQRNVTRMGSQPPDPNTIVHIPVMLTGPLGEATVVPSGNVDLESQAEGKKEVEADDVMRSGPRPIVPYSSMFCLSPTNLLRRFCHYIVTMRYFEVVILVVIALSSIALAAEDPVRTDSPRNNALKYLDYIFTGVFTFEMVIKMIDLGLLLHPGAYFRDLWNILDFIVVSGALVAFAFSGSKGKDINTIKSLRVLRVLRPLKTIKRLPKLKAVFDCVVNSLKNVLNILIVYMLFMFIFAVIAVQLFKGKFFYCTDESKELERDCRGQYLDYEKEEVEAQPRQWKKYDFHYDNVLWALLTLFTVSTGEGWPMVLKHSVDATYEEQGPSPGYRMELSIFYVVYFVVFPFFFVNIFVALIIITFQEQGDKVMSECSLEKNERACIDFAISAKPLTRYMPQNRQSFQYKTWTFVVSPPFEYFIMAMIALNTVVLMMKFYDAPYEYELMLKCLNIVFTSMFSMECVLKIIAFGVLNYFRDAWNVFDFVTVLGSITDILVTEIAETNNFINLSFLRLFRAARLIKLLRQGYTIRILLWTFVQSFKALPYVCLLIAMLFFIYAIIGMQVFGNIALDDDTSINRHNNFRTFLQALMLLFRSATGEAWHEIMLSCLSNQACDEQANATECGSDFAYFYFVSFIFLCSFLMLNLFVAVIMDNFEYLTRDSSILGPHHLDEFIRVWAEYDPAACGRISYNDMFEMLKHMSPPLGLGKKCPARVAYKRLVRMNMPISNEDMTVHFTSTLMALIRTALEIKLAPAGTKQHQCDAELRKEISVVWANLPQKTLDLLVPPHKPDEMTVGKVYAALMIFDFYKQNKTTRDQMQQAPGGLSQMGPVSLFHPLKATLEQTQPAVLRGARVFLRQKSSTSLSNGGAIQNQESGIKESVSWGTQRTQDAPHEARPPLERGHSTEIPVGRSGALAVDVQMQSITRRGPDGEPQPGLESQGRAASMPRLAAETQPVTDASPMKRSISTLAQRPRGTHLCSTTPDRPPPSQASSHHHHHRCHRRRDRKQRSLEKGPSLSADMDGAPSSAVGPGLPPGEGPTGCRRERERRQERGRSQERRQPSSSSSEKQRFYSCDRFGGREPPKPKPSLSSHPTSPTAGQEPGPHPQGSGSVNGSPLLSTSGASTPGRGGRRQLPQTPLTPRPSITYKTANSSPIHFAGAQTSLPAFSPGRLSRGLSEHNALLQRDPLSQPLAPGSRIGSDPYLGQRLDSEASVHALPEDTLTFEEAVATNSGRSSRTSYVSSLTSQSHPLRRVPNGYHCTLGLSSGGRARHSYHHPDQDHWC
T4 sequence (Q02410 whole entry): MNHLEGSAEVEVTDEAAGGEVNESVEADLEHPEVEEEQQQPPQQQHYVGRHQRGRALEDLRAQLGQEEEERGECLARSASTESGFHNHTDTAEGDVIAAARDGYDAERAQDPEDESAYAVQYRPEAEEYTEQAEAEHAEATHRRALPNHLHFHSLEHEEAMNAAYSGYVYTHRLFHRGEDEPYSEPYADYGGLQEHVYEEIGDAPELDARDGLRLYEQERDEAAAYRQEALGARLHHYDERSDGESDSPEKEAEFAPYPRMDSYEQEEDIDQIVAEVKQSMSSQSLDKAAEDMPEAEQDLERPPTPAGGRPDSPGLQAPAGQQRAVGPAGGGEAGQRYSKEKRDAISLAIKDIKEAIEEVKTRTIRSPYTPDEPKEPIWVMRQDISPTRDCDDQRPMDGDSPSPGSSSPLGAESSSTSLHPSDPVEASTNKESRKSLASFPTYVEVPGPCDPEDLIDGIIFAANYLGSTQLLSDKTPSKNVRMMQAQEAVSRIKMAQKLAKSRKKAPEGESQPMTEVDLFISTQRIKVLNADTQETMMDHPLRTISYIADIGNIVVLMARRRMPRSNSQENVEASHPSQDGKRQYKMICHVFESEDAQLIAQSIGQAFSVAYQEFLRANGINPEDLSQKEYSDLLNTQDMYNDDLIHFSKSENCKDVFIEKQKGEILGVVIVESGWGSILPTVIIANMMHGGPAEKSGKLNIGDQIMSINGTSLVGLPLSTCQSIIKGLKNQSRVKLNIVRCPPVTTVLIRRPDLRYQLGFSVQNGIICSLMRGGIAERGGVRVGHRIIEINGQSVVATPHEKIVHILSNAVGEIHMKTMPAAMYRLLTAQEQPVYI

[11] = molecular target: T4, Voltage-gated N-type calcium channel alpha-1B subunit/Amyloid beta A4 precursor protein-binding family A member 1; format: protein assay; remark: listed apart in the source
Cysteine protease ATG4B = molecular target: T5, Cysteine protease ATG4B (Homo sapiens, UniProt Q9Y4P1); format: functional;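 also: Fluorescence-based dose-response confirmation assay measuring inhibition of ATG4B activity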
T5 sequence (Q9Y4P1 whole entry): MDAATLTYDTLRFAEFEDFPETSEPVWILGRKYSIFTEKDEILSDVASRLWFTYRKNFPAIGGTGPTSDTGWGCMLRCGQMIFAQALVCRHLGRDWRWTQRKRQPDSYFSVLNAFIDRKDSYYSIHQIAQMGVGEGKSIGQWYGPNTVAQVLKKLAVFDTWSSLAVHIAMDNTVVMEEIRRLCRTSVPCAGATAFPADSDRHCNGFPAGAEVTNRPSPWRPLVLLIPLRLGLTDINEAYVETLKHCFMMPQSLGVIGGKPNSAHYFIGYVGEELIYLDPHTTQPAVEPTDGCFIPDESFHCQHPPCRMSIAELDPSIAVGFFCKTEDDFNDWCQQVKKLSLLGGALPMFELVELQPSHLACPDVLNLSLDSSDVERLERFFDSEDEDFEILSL

Phospholipase A2 = Phospholipase A2 (Homo sapiens, UniProt P04054); format: functional;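 also: confirmatory dose-response counterscreen on phospholipase A2, testing hits that came from an ultra-high-throughput screen for ATG4B inhibitors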
Vero [12] = test: mammalian cell viability reduction – secondary assay, cytotoxicity control for West Nile virus antiviral project, dose response (AID 1650); format: functional; conditions: Chlorocebus sabaeus
Vero [13] = test: cells; format: functional; conditions: Chlorocebus sabaeus
Vero [14] = test: cells; format: functional, cell-based; conditions: Chlorocebus sabaeus
Cytochrome P450 2C9 = Cytochrome P450 2C9 (Homo sapiens, UniProt P11712)
[15] = molecular target: Glucose-6-phosphate 1-dehydrogenase (Homo sapiens, UniProt P11413); test: inhibition of Homo sapiens G6PD, dose series – biochemical, fluorescence, selectivity assay for P. falciparum G6PD inhibitor project, dose response (AID 504792); format: functional
[16] = molecular target: Heat shock protein HSP 90-alpha (Homo sapiens, UniProt P07900); format: functional, organism-based
[17] = molecular target: T6, Short transient receptor potential channel 4 (Mus musculus, UniProt Q9QUQ5); test: block of DAMGO-driven TRPC4 calcium entry – cell-based, HEK293 TRPC4/mu-opioid, Fluo-4 calcium, dose response (AID 434942); format: functional;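 also: potency of inhibitors blocking the TRPC4 calcium response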
T6 sequence (Q9QUQ5 whole entry): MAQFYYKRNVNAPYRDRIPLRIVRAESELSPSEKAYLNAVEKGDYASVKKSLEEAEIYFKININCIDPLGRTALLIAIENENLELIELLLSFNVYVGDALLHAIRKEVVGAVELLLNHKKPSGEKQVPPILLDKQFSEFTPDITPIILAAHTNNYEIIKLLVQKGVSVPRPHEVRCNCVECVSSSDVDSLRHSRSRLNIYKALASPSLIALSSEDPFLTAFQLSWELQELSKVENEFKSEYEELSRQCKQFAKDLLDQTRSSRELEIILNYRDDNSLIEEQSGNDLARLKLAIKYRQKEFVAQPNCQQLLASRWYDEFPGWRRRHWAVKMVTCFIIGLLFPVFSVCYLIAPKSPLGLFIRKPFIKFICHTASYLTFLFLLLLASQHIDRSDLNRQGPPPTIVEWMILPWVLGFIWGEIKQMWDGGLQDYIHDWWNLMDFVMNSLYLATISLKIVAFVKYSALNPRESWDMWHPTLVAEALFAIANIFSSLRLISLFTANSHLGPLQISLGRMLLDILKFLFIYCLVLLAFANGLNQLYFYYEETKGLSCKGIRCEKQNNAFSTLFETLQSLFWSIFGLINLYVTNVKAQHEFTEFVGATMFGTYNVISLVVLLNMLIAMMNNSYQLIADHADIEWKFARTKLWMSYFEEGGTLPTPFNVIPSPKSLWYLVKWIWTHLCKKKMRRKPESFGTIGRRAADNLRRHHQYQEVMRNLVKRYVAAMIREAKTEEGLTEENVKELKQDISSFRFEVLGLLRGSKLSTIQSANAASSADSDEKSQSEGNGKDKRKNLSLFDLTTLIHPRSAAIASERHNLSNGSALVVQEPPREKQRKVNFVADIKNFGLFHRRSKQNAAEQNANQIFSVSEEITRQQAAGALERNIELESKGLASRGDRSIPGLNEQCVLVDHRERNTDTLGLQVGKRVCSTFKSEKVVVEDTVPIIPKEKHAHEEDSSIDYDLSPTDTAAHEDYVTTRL

[18] = molecular target: DNA dC->dU-editing enzyme APOBEC-3A (Homo sapiens, UniProt P31941); test: Dose Response confirmation of small molecule APOBEC3A DNA Deaminase Inhibitors via a fluorescence-based single-stranded DNA deaminase assay. [Related pubchem assays (depositor defined):AID493011, AID493024]; format: functional
[19] = molecular target: T7, DNA dC->dU-editing enzyme APOBEC-3G (Homo sapiens, UniProt Q9HC16); format: functional
T7 sequence (Q9HC16 whole entry): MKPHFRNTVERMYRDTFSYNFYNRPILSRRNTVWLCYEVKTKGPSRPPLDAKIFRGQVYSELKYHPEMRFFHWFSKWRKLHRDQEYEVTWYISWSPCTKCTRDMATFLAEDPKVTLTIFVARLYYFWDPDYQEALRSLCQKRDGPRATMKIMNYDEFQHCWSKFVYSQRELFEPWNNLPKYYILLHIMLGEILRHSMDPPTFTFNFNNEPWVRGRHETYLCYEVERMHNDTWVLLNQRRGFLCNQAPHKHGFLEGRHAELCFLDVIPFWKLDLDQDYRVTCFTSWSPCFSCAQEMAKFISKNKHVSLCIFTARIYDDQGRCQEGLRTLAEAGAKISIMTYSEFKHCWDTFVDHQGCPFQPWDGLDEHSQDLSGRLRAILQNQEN

[20] = molecular target: T7, DNA dC->dU-editing enzyme APOBEC-3G; test: Dose Response confirmation of small molecule APOBEC3G DNA Deaminase Inhibitors via a fluorescence-based single-stranded DNA deaminase assay. [Related pubchem assays (depositor defined):AID493012, AID493028]; format: functional

O=C(NCc1ccncc1)c1ccc(Br)o1
IC50 (Coagulation factor XII): > 50 µM (inactive)

CCCn1c(C)c(C(=O)c2ccc3ccccc3c2)c2ccccc21
AC50 (Cytochrome P450 3A4): inconclusive

Cc1ccc(NC(=O)c2sc3nc(C)cc(C)c3c2N)cc1
AC50 (HeLa): 213 µM (active)

Cc1ccc(OCc2cc(C(=O)N3C[C@H]4C[C@H]5C[C@@H](C4)C[C@H]3C5)no2)cc1C
AC50 (HeLa): 151 µM (active)

N#C/C(=C\c1ccc(-c2cccc([N+](=O)[O-])c2)o1)C(=O)Nc1nc(-c2cccs2)cs1
IC50 [1]: > 66.6 µM (inactive) | IC50 (Beta-galactosidase): > 66.6 µM (inactive)

CCCCn1cnc2sc(-c3ccccc3)cc2c1=O
AC50 (HeLa): 111 µM (active)

O=C1CCCc2ccccc2N1Cc1ccccc1Cl
AC50 (Cytochrome P450 3A4): inconclusive

CCN(CC)c1c([N+](=O)[O-])c(=O)sc2ccccc12
AC50 [2]: > 120 µM (inactive)

c1cc2c(cc1C1CCCCC1)c1c3n2CCCNC3CCC1 (configuration not stated)
EC50 [3]: > 120 µM (not active) | EC50 [4]: 5.92 µM (active) | IC50 [1]: 19.8 µM (active) | IC50 (Beta-galactosidase): > 66.6 µM (inactive) | EC50 [5]: 18 µM (active) | EC50 [6]: 71.1 µM (active) | EC50 [7]: 4.46 µM (active) | IC50 [8]: > 20 µM (inactive)

O=S(=O)([N-]c1nc2ccccc2nc1-[n+]1ccn(Cc2ccccc2)c1)c1ccc(Cl)cc1
AC50 [9]: 24.8 µM (active) | IC50 (Coagulation factor XII): > 50 µM (inactive)

CC(=O)Nc1ccc(NC(=O)c2ccc(NC(=O)c3ccccc3)cc2)cc1
IC50 [10]: 6.5 µM (active) | IC50 [11]: > 50 µM (inactive)

CN(C)c1cccc(C(=O)n2cc(C(=O)c3cc(F)ccc3O)cn2)c1
IC50 (Coagulation factor XII): 12.4 µM (active) | IC50 (Cysteine protease ATG4B): 7.59 µM (active) | IC50 (Phospholipase A2): 9.78 µM (active)

CC1(C)COC(/C=C/c2ccc([N+](=O)[O-])cc2)=N1
CC50 (Vero [12]): 10.2 µM (active) | CC50 (Vero [13]): 12.4 µM (active) | IC50 (Vero [14]): > 25 µM (active)

Cn1cc(Cl)c(C(=O)Nc2nc3ccc([N+](=O)[O-])cc3s2)n1
IC50 [10]: 5.21 µM (active) | IC50 [11]: > 50 µM (inactive)

Cc1ccc(Nc2ncc(C(=O)NCCCN3CCN(C)CC3)c3ccccc23)cc1Cl
CC50 (Vero [13]): > 25 µM (active) | IC50 (Vero [14]): 22.7 µM (active)

CCOC(=O)/C(C#N)=C\N(C)C
AC50 (Cytochrome P450 3A4): inconclusive | AC50 (Cytochrome P450 2C9): 39.8 µM (inconclusive)

CCC(=O)OCOc1ccc(/C=C2/CCC(CN(C)C)C2=O)cc1 (configuration not stated)
IC50 [15]: > 80 µM (inactive) | IC50 [1]: 15.5 µM (active) | IC50 (Beta-galactosidase): > 66.6 µM (inactive) | AC50 [16]: 2.85 µM (active)

COc1cccc(CNC(=O)CCC2CCCN(Cc3cc(Cl)ccc3O)C2)c1 (configuration not stated)
EC50 [17]: 2.11 µM (active)

CC12CCC(C/C1=N/OC(=O)c1cccc([N+](=O)[O-])c1)C2(C)C (configuration not stated)
EC50 [17]: 0.531 µM (active)

O=[N+]([O-])c1cc2c(cc1/C=N/Nc1nc(O)c3ccccc3n1)OCO2
IC50 [18]: 3.63 µM (active) | IC50 [19]: 4.7 µM (active)

CCOC(=O)c1c(N)sn(-c2ccccc2C)c1=S
IC50 [20]: 45.6 µM (active)
